Assay results from patent US7648974B1, “19-nor-vitamin D analogs with 3,2-dihydrofuran ring” (Wisconsin Alumni Research Foundation, priority 2008, dated 2010).
“Also recorded” adds a separate entry of the source.

Assays:
[1] = tested on: Human promyelocytic leukemia (HL60) cells; experiment: HL-60 differentiation (nitro blue tetrazolium reduction); assay type: cell-based; conditions: for EC50: Homo sapiens, HL-60, HL60 cells, FIG. 2
Method: Serial dilutions were prepared so that a range of drug concentrations could be tested without changing the final concentration of ethanol (≦0.2%) present in the cell cultures.
Human promyelocytic leukemia (HL60) cells were grown in RPMI-1640 medium containing 10% fetal bovine serum. The cells were incubated at 37° C. in the presence of 5% CO2.
HL60 cells were plated at 1.2×10^5 cells/ml. Eighteen hours after plating, cells in duplicate were treated with drug. Four days later, the cells were harvested and a nitro blue tetrazolium reduction assay was performed (Collins et al., 1979; J. Exp. Med. 149:969-974). The percentage of differentiated cells was determined by counting a total of 200 cells and recording the number that contained intracellular black-blue formazan deposits. Verification of differentiation to monocytic cells was determined by measuring phagocytic activity (data not shown).

[2] = tested on: 24-hydroxylase (24Ohase) gene promoter; experiment: In vitro transcription assay, luciferase reporter in ROS 17/2.8 (bone) cells; assay type: cell-based; conditions: ROS 17/2.8 cells, 24-hydroxylase promoter luciferase; FIG. 3; read-out: EC50, transcriptional activity in bone cells
Method: In Vitro Transcription Assay
Transcription activity was measured in ROS 17/2.8 (bone) cells that were stably transfected with a 24-hydroxylase (24Ohase) gene promoter upstream of a luciferase reporter gene (Arbour et al., 1998). Cells were given a range of doses. Sixteen hours after dosing the cells were harvested and luciferase activities were measured using a luminometer.
RLU=relative luciferase units.

[3] = tested on: Sprague-Dawley rats; experiment: Bone calcium mobilization (serum calcium); assay type: in vivo; conditions: FIG. 4; for serum calcium value: 7,020 pmol/day for 4 consecutive days, ip, low calcium diet (0.02%)
Method: (§1) Intestinal Calcium Transport and Bone Calcium Mobilization
(§2) Male, weanling Sprague-Dawley rats were placed on Diet 11 (0.47% Ca) diet+AEK oil for one week followed by Diet 11 (0.02% Ca)+AEK oil for 3 weeks. The rats were then switched to a diet containing 0.47% Ca for one week followed by two weeks on a diet containing 0.02% Ca. Dose administration began during the last week on 0.02% calcium diet. Four consecutive ip doses were given approximately 24 hours apart. Twenty-four hours after the last dose, blood was collected from the severed neck and the concentration of serum calcium determined as a measure of bone calcium mobilization. The first 10 cm of the intestine was also collected for intestinal calcium transport analysis using the everted gut sac method.

[4] = tested on: Sprague-Dawley rats; experiment: Intestinal calcium transport (everted gut sac method); assay type: in vivo; conditions: FIG. 5
Method: as §1, §2

[5] = molecular target: T1, full-length recombinant rat vitamin D receptor (Rattus norvegicus, UniProt P13053)
T1 sequence (P13053 1-423): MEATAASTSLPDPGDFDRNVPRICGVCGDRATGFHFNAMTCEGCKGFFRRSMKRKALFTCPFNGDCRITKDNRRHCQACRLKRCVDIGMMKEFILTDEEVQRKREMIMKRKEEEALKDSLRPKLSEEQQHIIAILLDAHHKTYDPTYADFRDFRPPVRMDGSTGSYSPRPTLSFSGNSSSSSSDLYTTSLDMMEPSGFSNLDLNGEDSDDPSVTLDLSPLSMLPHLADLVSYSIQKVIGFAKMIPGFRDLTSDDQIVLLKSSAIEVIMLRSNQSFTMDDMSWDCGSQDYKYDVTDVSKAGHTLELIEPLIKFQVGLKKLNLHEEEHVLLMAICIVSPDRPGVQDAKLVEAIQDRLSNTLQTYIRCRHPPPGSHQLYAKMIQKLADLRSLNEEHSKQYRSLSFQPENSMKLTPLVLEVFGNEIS
Description: Vitamin D Receptor Binding
Full-length recombinant rat receptor was expressed in E. coli BL21 (DE3) Codon Plus RIL cells and purified to homogeneity using two different column chromatography systems. The first system was a nickel affinity resin that utilizes the C-terminal histidine tag on this protein. The protein that was eluted from this resin was further purified using ion exchange chromatography (S-Sepharose Fast Flow). Aliquots of the purified protein were quick frozen in liquid nitrogen and stored at −80° C. until use. For use in binding assays, the protein was diluted in TEDK50 (50 mM Tris, 1.5 mM EDTA, pH7.4, 5 mM DTT, 150 mM KCl) with 0.1% Chaps detergent.
Radiolabeled and unlabeled ligands were added to 100 mcl of the diluted protein at a final ethanol concentration of ≦10%, mixed and incubated overnight on ice to reach binding equilibrium. The following day, 100 mcl of hydroxylapatite slurry (50%) was added to each tube and mixed at 10-minute intervals for 30 minutes. The hydroxylapaptite was collected by centrifugation and then washed three times with Tris-EDTA buffer (50 mM Tris, 1.5 mM EDTA, pH 7.4) containing 0.5% Titron X-100. After the final wash, the pellets were transferred to scintillation vials containing 4 ml of Biosafe II scintillation cocktail, mixed and placed in a scintillation counter. Total binding was determined from the tubes containing only radiolabeled ligand.

SMILES | EC50 [1] [µM] | EC50 [2] [µM] | serum calcium value [3] [mg/dL] | bone calcium mobilization activity (in words) ([3]; in vivo, doses tested) | HL-60 cell differentiation, less active/potent than 1,25(OH)2D3 ([1]; relative to 1,25(OH)2D3) | potency to promote HL60 cell differentiation, less than calcitriol ([1]; relative to calcitriol) [logs] | intestinal calcium transport activity (in words) ([4]; 780 pmol/day for 4 consecutive days) | intestinal calcium transport activity in vivo (in words) ([4]; in vivo, compared to 1,25-(OH)2D3) | Ki [5] [µM] | VDR affinity, less potent than 1,25-(OH)2D3 ([5]; relative to 1,25-(OH)2D3) [times] | VDR binding diminished as compared to 1α,25-dihydroxyvitamin D3 ([5]; relative to 1α,25-dihydroxyvitamin D3) [fold] | VDR binding affinity lower than the native hormone ([5]; relative to the native hormone)
C=C1/C(=C\C=C2/CCC[C@]3(C)[C@@H]([C@H](C)CCCC(C)(C)O)CC[C@@H]23)C[C@@H](O)C[C@@H]1O [1,25-(OH)2D3, 1α,25-dihydroxyvitamin D3, reference compound] | 0.003 | 0.0002 | 7.9 | increased serum calcium levels at all the dosages tested | – | – | – | – | – | – | – | –
C[C@H](CCCC(C)(C)O)C1CCC2/C(=C/C=C3\C[C@@H](O)C4=CCO[C@@H]4C3)CCC[C@@]21C (stereo partly drawn) [B-REV5, 3,2-dihydrofuran-1α,25-dihydroxy-19-nor-vitamin D3] | 1 | 0.3 | 6.1 | – | about 1,000 times | 3 | almost the same activity as 1,25-(OH)2D3 | significant intestinal calcium transport activity; also recorded: about the same potency | 0.8 | ~40 | ~10 | approximately 4 orders of magnitude
